# Entries after “also recorded” stand apart in the source; their conditions may differ. Where two headings read alike, the source gives them in different places.
# Key:
# [1] = in vitro metabolic stability in dog plasma; assay type: in vitro ADME; details: 30 min and 60 min
# Experimental: Percentage remaining was calculated in the following manner.
# [2] = plasma and CSF pharmacokinetics of DON in monkeys after i.v. DON or 14b; assay type: in vivo, pigtail macaques; details: Monkey, FIG. 58B
# Experimental: Pharmacokinetic Studies in Non-human primates. All monkey studies were conducted according to protocol (#PR15M298) approved by the Animal Care and Use Committee at Johns Hopkins University. Two female pigtail monkeys (approximately 3.5 kg, non-drug naive) were adjacently housed in stainless steel cages on a social interaction rack (contains 4 cages, each 32.5″ wide×28″ deep×32″ high) maintaining temperature of 64-84° F., humidity of 30-70% with alternating 14-10 hour light/dark cycle as per the USDA Animal Welfare Act (9 CFR. Parts 1, 2, and 3). Food was provided daily in amounts appropriate for the size and age of the animals and RO purified water provided ad libitum through an in-cage lixit valve. Food enrichment was provided Monday through Friday. Prior to drug administration, macaques were sedated with ketamine given as an intramuscular injection prior to test article administration. […]
# Bioanalysis of DON. […] The mean predicted relative standard deviation for back calculated concentrations of the standards and QC's for all analytes were within the range of 85 to 115%, except for the lowest concentration which was within the range of 80 to 120% with an overall accuracy and precision of 6.7% and 6.6%, respectively.
# Pharmacokinetic Analysis. […] Area under the curve (AUC) was calculated by log-linear trapezoidal rule to the end of sample collection (AUClast). […]
# [3] = plasma and CSF pharmacokinetics of DON in swine after i.v. infusion; assay type: in vivo, Göttingen×Yucutan miniature swine; details: 60 min post-administration
# Experimental: Compound: Compound 47 was dissolved in a sterile saline containing 5% ethanol and 5% Tween 80 on the date of administration.
# Swine: Swine studies were conducted under a protocol approved by the Johns Hopkins Animal Care and Use Committee. Adult, female Göttingen×Yucutan miniature swine (Massachusetts General Hospital, MA) were housed in Johns Hopkins University facilities accredited by the Association for Assessment and Accreditation of Laboratory Animal Care International in compliance with the Animal Welfare Act, Animal Welfare Regulations, and the Public Health Service Policy on the Humane Care and Use of Laboratory Animals. Animals were maintained on a 14-h light and 10-h dark schedule, provided ad libitum water and a commercial miniswine diet (Teklad, Madison, WI) with environmental enrichment (fruit/vegetables) twice daily.
# [4] = in vitro metabolic stability in pig plasma; details: 30 min and 60 min
# [5] = in vitro metabolic stability in mouse plasma
# [6] = in vitro metabolic stability in human plasma
# [7] = in vitro metabolic stability in monkey plasma
# U87 human glioma cells = test: U87 flank xenograft mouse model of GBM; assay type: in vivo
# Experimental: Mice Efficacy Studies. All mouse efficacy studies were conducted according to protocol #MO13M69 approved by the Animal Care and Use Committee at Johns Hopkins University. Female athymic (RH-Foxn1nu mice) mice between 25 and 30 g were obtained (Harlan Sprague Dawley Inc. Indianapolis. Indiana), and maintained on a 12 hour light-dark cycle with ad libitum access to food and water. U87 human glioma cells were injected s.c. (5×10^6 cells in […] of PBS) in four separate locations on the flanks of each mouse. When tumors grew to a mean volume of around 200 mm^3, mice were randomized into either vehicle (HEPES-buffered saline, i.p.) or DON (1; 0.8 mg/kg, i.p.). In one cohort, mice were administered a single dose of the appropriate solution two hours after which glutamine levels were quantified in the tumor as described previously (Le et al., 2012). In brief, tumors were harvested, snap frozen, and homogenized in liquid N, then subjected to metabolite extraction using methanol and DI water. Quantification was performed using Agilent 6520 Quadrupole-Time-of-Flight (Q-TOF) mass spectrometer with Agilent 1290 HPLC and using Agilent Mass Hunter and Agilent Qualitative and Quantitative Analysis Software packages. Glutamine content was averaged by group for each individual tumor (n=3-4/group), depicted as relative intensity, and analyzed by one-tailed t test. In a second cohort, efficacy experiments were conducted. Mice were injected once daily for six days; tumor volumes were measured using digital calipers and calculated according to the formula: [volume=(largest tumor dimension)×(smallest tumor dimension)^2×0.52] at 2, 4, and 6 days after the onset of treatment. Each individual tumor (n=8-10/group) was normalized to its pretreatment volume, averaged and analyzed by repeated measures two-way analysis of variance (ANOVA). If significant, a Bonferroni post hoc test was subsequently applied. Significance was defined as p<0.05.
# [8] = 5-day i.v. toxicity comparison of DON and 38 in pigs; assay type: in vivo
# melanoma = melanoma growth model; details: in vivo
# EL4 mouse lymphoma = EL4 mouse lymphoma model; details: in vivo
# [9] = tolerability of daily treatment with DON or 25 in mice
# [10] = Cmax, tumor to gut ratio and GI toxicity of 25 vs DON at equimolar doses in mice; details: 0.8 mg/kg (equivalent) daily for 5 days
# CT26 colon cancer = test: CT26 tumor model; assay type: in vivo, mice; details: single agent
# 4T1 tumor cells = test: 4T1 breast cancer model; assay type: in vivo, BALB/c mice; details: single agent, about 1 mg/kg daily
# Experimental: 4T1 tumor cells (0.1 million) were injected into the mammary fat pads of 8-week-old female BALB/c mice. Mice received vehicle (PBS) or 1 mg/kg compound 25 daily from day 5 to day 22. Photos were taken on day 30 after tumor inoculation (FIG. 57A). Tumor volume was measured 2-3 times weekly until WT mice were sacrificed (when size reached to 20 mm length or necrosis occurred). Day 0: 100K 4T1 cells s.c. in 4th mammary pad. Day 5-22: Daily compound 25.
# 4T1-Luc tumor cells (0.1 million) were injected into the mammary fat pads of 8-week-old female BALB/c mice. Mice received vehicle (PBS) or 1 mg/kg compound 25 daily from day 7. Anti-PD1 (5 mg/Kg) was administered on day 5, 8, and 12. Mice carrying 4T1-luc tumors are injected with Luciferin to measure luminescence from the tumor. IVIS imaging were taken on day 13.
# 4T1-Luc tumor cells (0.1 million) were injected into the mammary fat pads of 8-week-old female BALB/c mice. Mice received vehicle (PBS) or 1 mg/kg compound 25 daily from day 7 to day 16. Anti-PD1 (5 mg/Kg) was administered on day 5, 8, 12 and 17. Tumor volume was measured 2-3 times weekly until tumors were evaluated for tumor infiltrating cells on day 21. Tumor weights were measured on day 21. On day 21, the PD1 group tumor size looks like it was reduced, however, the result was not due to a tumor size reduction, but rather because one of the large tumor mice died.
# MC38 colon cancer = test: MC38 tumor model; assay type: in vivo, mice; details: single agent
# colon cancer cells = test: rechallenge of compound 25 treated mice with colon cancer cells; assay type: in vivo; details: mice previously treated with single agent
# [11] = human microsomes
# [12] = pig microsomes
# [13] = mouse, in vivo
# [14] = mouse, in vivo; remark: listed apart in the source
structure (smiles),measurement,setting,value
"CC(C)OC(=O)[C@H](CCC(=O)C=[N+]=[N-])NC(=O)OC(C)OC(=O)C(C)(C)C (single isomer, unassigned) [Compound 14b, 1-Methylethyl 6-(1λ^5-diazynylidene)-N-({1-[(2,2-dimethylpropanoyl)oxy]ethoxy}carbonyl)-5-oxo-L-norleucinate]",stability in dog plasma (in words),[1],highly stable
same,CSF:plasma ratio of DON (in words),[2],enhanced CSF:plasma ratio
same,CSF delivery of DON (in words),[3],substantially higher amounts of DON to the CSF; also recorded: enhanced CSF delivery of DON
same,CSF:plasma ratio of DON (in words),[3],increased CSF-to-plasma ratios; also recorded: enhanced CSF:plasma ratio
same,stability in pig plasma (in words),[4],highly stable
same,stability in mouse plasma (in words),[5]; 30 min and 60 min,rapidly metabolized
same,PLASMA STABILITY Mouse,"[5]; prodrug remaining within the 60 min incubation time, mouse plasma",0%
same,stability in human plasma (in words),[6]; 30 min and 60 min,highly stable
same,PLASMA STABILITY Human,"[6]; prodrug remaining within the 60 min incubation time, human plasma",91%
same,stability in monkey plasma (in words),[7]; 30 min and 60 min,highly stable
same,PLASMA STABILITY Monkey,"[7]; prodrug remaining within the 60 min incubation time, monkey plasma",61%
"[N-]=[N+]=CC(=O)CC[C@H](N)C(=O)O [DON, 6-diazo-5-oxo-L-norleucine]",flank GBM tumor size (in words),"U87 human glioma cells; 0.8 mg/kg, i.p, q.d. days 1-6",dramatic reduction in tumor size
same,glutamine metabolism in tumor (endogenous glutamine accumulation),"U87 human glioma cells; 0.8 mg/kg, i.p., 2 hours post-administration, flank GBM tumors",inhibited glutamine metabolism
same,signs of toxicity (in words),"U87 human glioma cells; mice receiving DON 0.8 mg/kg, i.p, q.d.",significant signs of toxicity
same,macroscopic stomach toxicity (in words),[8]; 5 days of dosing,more severe stomach toxicity
same,adverse clinical signs (in words),"[8]; DON 1.6 mg/kg vs 38 1.5 mg/kg, i.v. 2 h/day for 5 days, equivalent PBMC exposure",more adverse clinical signs; also recorded: more adverse clinical effects
same,effect on melanoma growth (in words),melanoma,modest effect on inhibiting melanoma growth
same,antitumor efficacy against lymphoma (in words),EL4 mouse lymphoma,cure lymphoma; also recorded: markedly inhibits lymphoma growth; also recorded: efficacious
same,blood counts (in words),[9]; daily high dose treatment,pan-cytopenia
same,body weight (in words),[9]; daily high dose treatment,weight loss
same,renal and liver function (in words),[9]; high dose,unaffected
same,"GI toxicity, jejunum-ileum histology (in words)",[10],significant inflammation
"CCOC(=O)[C@H](CCC(=O)C=[N+]=[N-])NC(=O)[C@@H](N)CC(C)C [Compound 25, Ethyl 2-(2-amino-4-methylpentanamido)-6-diazo-5-oxohexanoate]",antitumor efficacy in CT26 tumor model (in words),CT26 colon cancer,superior to CB-839; also recorded: robust response and improved overall survival
same,antitumor efficacy in 4T1 breast cancer model (in words),4T1 tumor cells,superior to CB-839; also recorded: robust response and improved overall survival; also recorded: inhibited the growth of mammary carcinoma tumor cells; also recorded: inhibits tumor growth
same,antitumor efficacy in MC38 tumor model (in words),MC38 colon cancer,complete and durable response; also recorded: inhibits colon cell proliferation and extends the survival of mice; also recorded: efficacious; also recorded: more efficacious than oxaliplatin
same,colon cancer cell proliferation upon rechallenge (in words),colon cancer cells,prevents colon cancer cell proliferation upon rechallenge
same,liver microsomal stability (in words),[11],moderate-high stability
same,liver microsomal stability (in words),[12],moderate-high stability
same,blood counts (in words),[13],some leukopenia
same,body weight (in words),[13],No weight loss
same,bone marrow suppression (in words),[13],no bone marrow suppression
same,renal and liver function (in words),[13],unaffected
same,Cmax vs DON (in words),[14],reduces Cmax
same,tumor to gut ratio vs DON (in words),[14],enhances tumor to gut ratio
same,antitumor efficacy against lymphoma (in words),EL4 mouse lymphoma,cure lymphoma; also recorded: efficacious
same,"GI toxicity, jejunum-ileum histology (in words)",[10],causes less GI toxicity
